{"source": "patent US7271165B2", "about": "“Rifamycin analogs and uses thereof” (priority 2003, dated 2007)", "key": {"E. faecalis": {"test_system": "E. faecalis", "assay": "MIC assay, E. faecalis", "type": "cell-based, Enterococcus faecalis"}, "S. aureus": {"test_system": "S. aureus", "assay": "MIC assay, S. aureus", "type": "cell-based, Staphylococcus aureus"}, "S. pneumo.": {"test_system": "S. pneumo.", "assay": "MIC assay, S. pneumo.", "type": "cell-based, Streptococcus pneumoniae"}, "H. flu": {"test_system": "H. flu", "type": "cell-based, H. influenza", "conditions": "H. flu"}, "E coli": {"test_system": "E coli", "assay": "MIC assay, E coli", "type": "cell-based"}}, "data": [{"smiles": "COC1C=COC2(C)Oc3c(C)c(O)c4c(=O)c(c5oc6cc(N7CC8CCCN(C)C8C7)cc(O)c6nc-5c4c3C2=O)NC(=O)C(C)=CC=CC(C)C(O)C(C)C(O)C(C)C(OC(C)=O)C1C", "note": "[Compound 58, 3′-hydroxy-5′-[1-methyl-(4aS,7aS)-octahydro-6H-pyrrolo[3,4-b]pyridin-6-yl]benzoxazinorifamycin]", "values": [{"measurement": "MIC (μg/mL) E. faecalis", "setting": "E. faecalis", "value": 1, "unit": "µg/mL"}, {"measurement": "MIC (μg/mL) S. aureus", "setting": "S. aureus", "value": 0.03, "unit": "µg/mL"}, {"measurement": "MIC (μg/mL) S. pneumo.", "setting": "S. pneumo.", "value": 0.004, "unit": "µg/mL"}, {"measurement": "MIC (μg/mL) H. flu", "setting": "H. flu", "value": 0.25, "unit": "µg/mL"}, {"measurement": "MIC (μg/mL) E coli", "setting": "E coli", "value": ">8", "unit": "µg/mL"}]}, {"smiles": "COC1C=COC2(C)Oc3c(C)c(O)c4c(=O)c(c5oc6cc(N7CC8CCCN(C)C8C7)cc(O)c6nc-5c4c3C2=O)NC(=O)C(C)=CC=CC(C)C(O)C(C)C(O)C(C)C(O)C1C", "note": "[Compound 59, 25-O-deacetyl-3′-hydroxy-5′-[1-methyl-(4aS,7aS)-octahydro-6H-pyrrolo[3,4-b]pyridin-6-yl]benzoxazinorifamycin]", "values": [{"measurement": "MIC (μg/mL) E. faecalis", "setting": "E. faecalis", "value": 0.06, "unit": "µg/mL"}, {"measurement": "MIC (μg/mL) S. aureus", "setting": "S. aureus", "value": 0.004, "unit": "µg/mL"}, {"measurement": "MIC (μg/mL) S. pneumo.", "setting": "S. pneumo.", "value": 0.001, "unit": "µg/mL"}, {"measurement": "MIC (μg/mL) H. flu", "setting": "H. flu", "value": 0.12, "unit": "µg/mL"}, {"measurement": "MIC (μg/mL) E coli", "setting": "E coli", "value": 4, "unit": "µg/mL"}]}, {"smiles": "CCOC(=O)NCC1CCN(c2cc(O)c3nc4c5c6c7c(C)c(O)c5c(=O)c(c-4oc3c2)NC(=O)C(C)=CC=CC(C)C(O)C(C)C(O)C(C)C(O)C(C)C(OC)C=COC(C)(O7)C6=O)CC1", "note": "(centres unmarked) [Compound 60, 25-O-deacetyl-3′-hydroxy-5′-[4-ethylcarbamylmethyl-1-piperidinyl]benzoxazinorifamycin]", "values": [{"measurement": "MIC (μg/mL) E. faecalis", "setting": "E. faecalis", "value": 0.5, "unit": "µg/mL"}, {"measurement": "MIC (μg/mL) S. aureus", "setting": "S. aureus", "value": 0.008, "unit": "µg/mL"}, {"measurement": "MIC (μg/mL) S. pneumo.", "setting": "S. pneumo.", "value": 0.0005, "unit": "µg/mL"}, {"measurement": "MIC (μg/mL) H. flu", "setting": "H. flu", "value": 0.06, "unit": "µg/mL"}, {"measurement": "MIC (μg/mL) E coli", "setting": "E coli", "value": ">8", "unit": "µg/mL"}]}, {"smiles": "COC1C=COC2(C)Oc3c(C)c(O)c4c(=O)c(c5oc6cc(N7CCC(CCO)CC7)cc(O)c6nc-5c4c3C2=O)NC(=O)C(C)=CC=CC(C)C(O)C(C)C(O)C(C)C(OC(C)=O)C1C", "note": "(centres unmarked) [Compound 61, 3′-hydroxy-5′-[4-(2-hydroxyethyl)-1-piperidinyl]benzoxazinorifamycin]", "values": [{"measurement": "MIC (μg/mL) E. faecalis", "setting": "E. faecalis", "value": 1, "unit": "µg/mL"}, {"measurement": "MIC (μg/mL) S. aureus", "setting": "S. aureus", "value": 0.004, "unit": "µg/mL"}, {"measurement": "MIC (μg/mL) S. pneumo.", "setting": "S. pneumo.", "value": 0.00012, "unit": "µg/mL"}, {"measurement": "MIC (μg/mL) H. flu", "setting": "H. flu", "value": 0.25, "unit": "µg/mL"}, {"measurement": "MIC (μg/mL) E coli", "setting": "E coli", "value": ">8", "unit": "µg/mL"}]}, {"smiles": "COC1C=COC2(C)Oc3c(C)c(O)c4c(=O)c(c5oc6cc(N7CCC(c8ccccc8)CC7)cc(O)c6nc-5c4c3C2=O)NC(=O)C(C)=CC=CC(C)C(O)C(C)C(O)C(C)C(O)C1C", "note": "(centres unmarked) [Compound 62, 25-O-deacetyl-3′-hydroxy-5′-[4-phenyl-1-piperidinyl]benzoxazinorifamycin]", "values": [{"measurement": "MIC (μg/mL) E. faecalis", "setting": "E. faecalis", "value": 8, "unit": "µg/mL"}, {"measurement": "MIC (μg/mL) S. aureus", "setting": "S. aureus", "value": 0.015, "unit": "µg/mL"}, {"measurement": "MIC (μg/mL) S. pneumo.", "setting": "S. pneumo.", "value": 0.008, "unit": "µg/mL"}, {"measurement": "MIC (μg/mL) H. flu", "setting": "H. flu", "value": 0.5, "unit": "µg/mL"}, {"measurement": "MIC (μg/mL) E coli", "setting": "E coli", "value": ">8", "unit": "µg/mL"}]}, {"smiles": "COCCOC(=O)NC1CCN(c2cc(O)c3nc4c5c6c7c(C)c(O)c5c(=O)c(c-4oc3c2)NC(=O)C(C)=CC=CC(C)C(O)C(C)C(O)C(C)C(O)C(C)C(OC)C=COC(C)(O7)C6=O)CC1", "note": "(centres unmarked) [Compound 63, 25-O-deacetyl-3′-hydroxy-5′-[4-methoxyethylcarbamyl-1-piperidinyl]benzoxazinorifamycin]", "values": [{"measurement": "MIC (μg/mL) E. faecalis", "setting": "E. faecalis", "value": 1, "unit": "µg/mL"}, {"measurement": "MIC (μg/mL) S. aureus", "setting": "S. aureus", "value": 0.008, "unit": "µg/mL"}, {"measurement": "MIC (μg/mL) S. pneumo.", "setting": "S. pneumo.", "value": 0.002, "unit": "µg/mL"}, {"measurement": "MIC (μg/mL) H. flu", "setting": "H. flu", "value": 0.25, "unit": "µg/mL"}, {"measurement": "MIC (μg/mL) E coli", "setting": "E coli", "value": 8, "unit": "µg/mL"}]}, {"smiles": "COC1C=COC2(C)Oc3c(C)c(O)c4c(=O)c(c5sc6cc(N7CC(C)NC(C)C7)ccc6nc-5c4c3C2=O)NC(=O)C(C)=CC=CC(C)C(O)C(C)C(O)C(C)C(OC(C)=O)C1C", "note": "[Compound 64, 5′-[(3R,5S)-3,5-dimethyl-1-piperazinyl]benzthiazinorifamycin]", "values": [{"measurement": "MIC (μg/mL) E. faecalis", "setting": "E. faecalis", "value": 0.12, "unit": "µg/mL"}, {"measurement": "MIC (μg/mL) S. aureus", "setting": "S. aureus", "value": 0.004, "unit": "µg/mL"}, {"measurement": "MIC (μg/mL) S. pneumo.", "setting": "S. pneumo.", "value": 0.00012, "unit": "µg/mL"}, {"measurement": "MIC (μg/mL) H. flu", "setting": "H. flu", "value": 0.25, "unit": "µg/mL"}, {"measurement": "MIC (μg/mL) E coli", "setting": "E coli", "value": 4, "unit": "µg/mL"}]}, {"smiles": "COC1C=COC2(C)Oc3c(C)c(O)c4c(=O)c(c5sc6cc(N7CC(C)NC(C)C7)ccc6nc-5c4c3C2=O)NC(=O)C(C)=CC=CC(C)C(O)C(C)C(O)C(C)C(O)C1C", "note": "[Compound 65, 25-O-deacetyl-5′-[(3R,5S)-3,5-dimethyl-1-piperazinyl]benzthiazinorifamycin]", "values": [{"measurement": "MIC (μg/mL) E. faecalis", "setting": "E. faecalis", "value": 0.12, "unit": "µg/mL"}, {"measurement": "MIC (μg/mL) S. aureus", "setting": "S. aureus", "value": 0.002, "unit": "µg/mL"}, {"measurement": "MIC (μg/mL) S. pneumo.", "setting": "S. pneumo.", "value": 0.00025, "unit": "µg/mL"}, {"measurement": "MIC (μg/mL) H. flu", "setting": "H. flu", "value": 0.12, "unit": "µg/mL"}, {"measurement": "MIC (μg/mL) E coli", "setting": "E coli", "value": 2, "unit": "µg/mL"}]}, {"smiles": "COC1C=COC2(C)Oc3c(C)c(O)c4c(=O)c(c5oc6cc(N7CCC(CCO)CC7)cc(O)c6nc-5c4c3C2=O)NC(=O)C(C)=CC=CC(C)C(O)C(C)C(O)C(C)C(O)C1C", "note": "(centres unmarked) [Compound 66, 25-O-deacetyl-3′-hydroxy-5′-[4-(2-hydroxyethyl)-1-piperidinyl]benzoxazinorifamycin]", "values": [{"measurement": "MIC (μg/mL) E. faecalis", "setting": "E. faecalis", "value": 0.12, "unit": "µg/mL"}, {"measurement": "MIC (μg/mL) S. aureus", "setting": "S. aureus", "value": 0.004, "unit": "µg/mL"}, {"measurement": "MIC (μg/mL) S. pneumo.", "setting": "S. pneumo.", "value": 0.0005, "unit": "µg/mL"}, {"measurement": "MIC (μg/mL) H. flu", "setting": "H. flu", "value": 0.12, "unit": "µg/mL"}, {"measurement": "MIC (μg/mL) E coli", "setting": "E coli", "value": 4, "unit": "µg/mL"}]}, {"smiles": "CCCS(=O)(=O)NC1CCN(c2cc(O)c3nc4c5c6c7c(C)c(O)c5c(=O)c(c-4oc3c2)NC(=O)C(C)=CC=CC(C)C(O)C(C)C(O)C(C)C(O)C(C)C(OC)C=COC(C)(O7)C6=O)CC1", "note": "(centres unmarked) [Compound 67]", "values": [{"measurement": "MIC (μg/mL) E. faecalis", "setting": "E. faecalis", "value": 0.5, "unit": "µg/mL"}, {"measurement": "MIC (μg/mL) S. aureus", "setting": "S. aureus", "value": 0.008, "unit": "µg/mL"}, {"measurement": "MIC (μg/mL) S. pneumo.", "setting": "S. pneumo.", "value": 0.001, "unit": "µg/mL"}, {"measurement": "MIC (μg/mL) H. flu", "setting": "H. flu", "value": 0.12, "unit": "µg/mL"}, {"measurement": "MIC (μg/mL) E coli", "setting": "E coli", "value": ">8", "unit": "µg/mL"}]}]}
